In US10722495B2, “Cyanoindazole compounds and uses thereof” (Incyte Corporation, priority 2017, dated 2020):
Values belong to the molecule of their own block, whether it stands above or below them.

Biological target: HPK1 (Homo sapiens (Human), UniProt Q92918)
Assay: HPK1 Kinase Binding Assay
Conditions: active HPK1 (SignalChem M23-11G), tracer 222, LanthaScreen Eu-Anti GST antibody, one hour incubation at 25° C.
Experimental: Example A. HPK1 Kinase Binding Assay
A stock solution of 1 mM test compound was prepared in DMSO. The compound plate was prepared by 3-fold and 11-point serial dilutions. 0.1 μL of the compound in DMSO was transferred from the compound plate to the white 384 well polystyrene plates. The assay buffer contained 50 mM HEPES, pH 7.5, 0.01% Tween-20, 5 mM MgCl2, 0.01% BSA, and 5 mM DTT. 5 μl of 4 nM active HPK1 (SignalChem M23-11G) prepared in the buffer was added to the plate. The enzyme concentration given was based on the given stock concentration reported by the vender. 5 μl of 18 nM tracer 222 (ThermoFisher PV6121) and 4 nM LanthaScreen Eu-Anti GST antibody (ThermoFisher PV5595) were added. After one hour incubation at 25° C., the plates were read on a PHERAstar FS plate reader (BMG Labtech). Ki values were determined.

Chain of HPK1 (Q92918 1-346): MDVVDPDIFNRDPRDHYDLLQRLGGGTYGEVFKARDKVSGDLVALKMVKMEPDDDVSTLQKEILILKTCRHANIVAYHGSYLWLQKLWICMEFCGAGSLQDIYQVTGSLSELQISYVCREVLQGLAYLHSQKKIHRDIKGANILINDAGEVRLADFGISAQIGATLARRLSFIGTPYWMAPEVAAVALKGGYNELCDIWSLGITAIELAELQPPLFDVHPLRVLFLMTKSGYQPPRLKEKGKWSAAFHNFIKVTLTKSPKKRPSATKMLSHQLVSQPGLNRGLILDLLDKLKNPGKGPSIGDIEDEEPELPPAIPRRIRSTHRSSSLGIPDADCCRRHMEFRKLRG

SMILES: CNCc1cc(C)c(-c2cc3c(-c4ccc(C(C)(C)O)nc4)n[nH]c3cc2C#N)c(F)c1 [Example 33, 5-(2-Fluoro-6-methyl-4-((methylamino)methyl)phenyl)-3-(6-(2-hydroxypropan-2-yl)pyridin-3-yl)-1H-indazole-6-carbonitrile]
Ki: ≤ 100 nM

SMILES: CNCc1cc(C)c(-c2cc3c(-c4ccc(C)nc4)n[nH]c3cc2C#N)c(F)c1 [Example 34, 5-(2-Fluoro-6-methyl-4-((methylamino)methyl)phenyl)-3-(6-methylpyridin-3-yl)-1H-indazole-6-carbonitrile]
Ki: ≤ 100 nM

SMILES: CNCc1cc(C)c(-c2cc3c(-c4cnsc4)n[nH]c3cc2C#N)c(F)c1 [Example 37, 5-(2-Fluoro-6-methyl-4-((methylamino)methyl)phenyl)-3-(isothiazol-4-yl)-1H-indazole-6-carbonitrile]
Ki: ≤ 100 nM

SMILES: CNCc1cc(C)c(-c2cc3c(-c4cnoc4)n[nH]c3cc2C#N)c(F)c1 [Example 38, 5-(2-Fluoro-6-methyl-4-((methylamino)methyl)phenyl)-3-(isoxazol-4-yl)-1H-indazole-6-carbonitrile]
Ki: ≤ 100 nM

SMILES: CNCc1cc(C)c(-c2cc3c(-c4cnc(C)o4)n[nH]c3cc2C#N)c(F)c1 [Example 40, 5-(2-Fluoro-6-methyl-4-((methylamino)methyl)phenyl)-3-(2-methyloxazol-5-yl)-1H-indazole-6-carbonitrile]
Ki: ≤ 100 nM

SMILES: CNCc1cc(C)c(-c2cc3c(-c4ccc(N5CC[C@H](F)C5)nc4)n[nH]c3cc2C#N)c(F)c1 [Example 41, 5-(2-Fluoro-6-methyl-4-((methylamino)methyl)phenyl)-3-(6-((S)-3-fluoropyrrolidin-1-yl)pyridin-3-yl)-1H-indazole-6-carbonitrile]
Ki: ≤ 100 nM

SMILES: CNCc1cc(C)c(-c2cc3c(-c4ccc(N5CCC(O)CC5)nc4)n[nH]c3cc2C#N)c(F)c1 [Example 42, 5-(2-Fluoro-6-methyl-4-((methylamino)methyl)phenyl)-3-(6-(4-hydroxypiperidin-1-yl)pyridin-3-yl)-1H-indazole-6-carbonitrile]
Ki: ≤ 100 nM

SMILES: CC[C@@H](C)Nc1ccc(-c2n[nH]c3cc(C#N)c(-c4c(C)cc(CNC)cc4F)cc23)cn1 [Example 43, 3-(6-(((R)-sec-Butyl)amino)pyridin-3-yl)-5-(2-fluoro-6-methyl-4-((methylamino)methyl)phenyl)-1H-indazole-6-carbonitrile]
Ki: ≤ 100 nM

SMILES: CNCc1cc(C)c(-c2cc3c(-c4ccc(N5CC(CO)C5)nc4)n[nH]c3cc2C#N)c(F)c1 [Example 44, 5-(2-Fluoro-6-methyl-4-((methylamino)methyl)phenyl)-3-(6-(3-(hydroxymethyl)azetidin-1-yl)pyridin-3-yl)-1H-indazole-6-carbonitrile]
Ki: ≤ 100 nM

SMILES: CNCc1cc(C)c(-c2cc3c(-c4cccc(N5CCN(C)CC5)n4)n[nH]c3cc2C#N)c(F)c1 [Example 46, 5-(2-Fluoro-6-methyl-4-((methylamino)methyl)phenyl)-3-(6-(4-methylpiperazin-1-yl)pyridin-2-yl)-1H-indazole-6-carbonitrile]
Ki: ≤ 100 nM

SMILES: COc1cccc(F)c1-c1cc2c(-c3cnn(C)c3)n[nH]c2cc1C#N [Example 50, 5-(2-Fluoro-6-methoxyphenyl)-3-(1-methyl-1H-pyrazol-4-yl)-1H-indazole-6-carbonitrile]
Ki: ≤ 100 nM

Other lines, results leading:

Ki: ≤ 100 nM
SMILES: CNCc1cc(C)c(-c2cc3c(-c4cnc(OC)nc4)n[nH]c3cc2C#N)c(F)c1 [Example 35, 5-(2-Fluoro-6-methyl-4-((methylamino)methyl)phenyl)-3-(2-methoxypyrimidin-5-yl)-1H-indazole-6-carbonitrile]

Ki: ≤ 100 nM
SMILES: CNCc1cc(C)c(-c2cc3c(-c4cnco4)n[nH]c3cc2C#N)c(F)c1 [Example 36, 5-(2-Fluoro-6-methyl-4-((methylamino)methyl)phenyl)-3-(oxazol-5-yl)-1H-indazole-6-carbonitrile]

Ki: ≤ 100 nM
SMILES: CNCc1cc(C)c(-c2cc3c(-c4ccc(C5CCOCC5)cc4)n[nH]c3cc2C#N)c(F)c1 [Example 39, 5-(2-Fluoro-6-methyl-4-((methylamino)methyl)phenyl)-3-(4-(tetrahydro-2H-pyran-4-yl)phenyl)-1H-indazole-6-carbonitrile]

Ki: ≤ 100 nM
SMILES: CNCc1cc(C)c(-c2cc3c(-c4cccc(N5CCC(O)CC5)n4)n[nH]c3cc2C#N)c(F)c1 [Example 45, 5-(2-Fluoro-6-methyl-4-((methylamino)methyl)phenyl)-3-(6-(4-hydroxypiperidin-1-yl)pyridin-2-yl)-1H-indazole-6-carbonitrile]

Ki: ≤ 100 nM
SMILES: CNCc1cc(C)c(-c2cc3c(-c4cccc(N5CC[C@H](N(C)C)C5)n4)n[nH]c3cc2C#N)c(F)c1 [Example 47, 3-(6-((S)-3-(Dimethylamino)pyrrolidin-1-yl)pyridin-2-yl)-5-(2-fluoro-6-methyl-4-((methylamino)methyl)phenyl)-1H-indazole-6-carbonitrile]

Ki: ≤ 100 nM
SMILES: Cc1ccccc1-c1cc2c(-c3cnn(C)c3)n[nH]c2cc1C#N [Example 48, 3-(1-Methyl-1H-pyrazol-4-yl)-5-o-tolyl-1H-indazole-6-carbonitrile]

Ki: ≤ 100 nM
SMILES: Cn1cc(-c2n[nH]c3cc(C#N)c(-c4ccccc4F)cc23)cn1 [Example 49, 5-(2-Fluorophenyl)-3-(1-methyl-1H-pyrazol-4-yl)-1H-indazole-6-carbonitrile]

Ki: ≤ 100 nM
SMILES: Cc1cccc(F)c1-c1cc2c(-c3cnn(C)c3)n[nH]c2cc1C#N [Example 51, 5-(2-Fluoro-6-methylphenyl)-3-(1-methyl-1H-pyrazol-4-yl)-1H-indazole-6-carbonitrile]
